In patent US11725002B2, “Detection reagents and kit for identifying oxidized state and glycated state of low-density lipoproteins” (FUSO PHARMACEUTICAL INDUSTRIES, LTD., priority 2017, dated 2023):

Key:
lipid radicals in LDL = test: Fluorescence detection of lipid radicals in LDL with NBD-Pen
Protocol: To a solution of 20 μg protein/ml of LDL and 10 μM of NBD-Pen in phosphate buffered saline (PBS) containing 0.5% of MeCN were added 0-3 μM of CuSO4, FeSO4 or Hemin, to generate lipid radicals.
Specifically, to a solution of 20 μg protein/ml of LDL and 10 μM of NBD-Pen in phosphate buffered saline (PBS; pH 7.4) containing 0.5% of MeCN were added 0-3 μM of Hemin, to generate lipid radicals. After incubation for 60 minutes at 37° C., these reacted solutions were investigated by the respective methods.
For fluorescence detection using NBD-Pen according to the present invention, the fluorescence intensities obtained in Example 1 were expressed as ratios based on the results without addition of Hemin.

[1] = test system: plaques of thoracic aorta; test: Fluorescence mapping of lipid oxide in aorta of arteriosclerosis model mouse; assay type: in vivo, Apo-E knockout mouse; conditions: high fat diet 3 weeks, 500 μM/kg intraperitoneal, 15 minutes after administration, 470 nm/530 nm
Protocol: A 6-week-old male Apo-E knockout mouse (Apo−/−) was fed with a high fat diet, and 3 weeks later, NBD-Pen was administered at 500 μM/kg by intraperitoneal injection.
Fifteen minutes after NBD-Pen administration, the mouse was subjected to three types of mixed anesthesia and sacrificed, and the thoracic aorta was immediately removed. […] An oil red stained image of plaques of the same aortic sample was taken with a digital camera (FIG. 7b).

[2] = Lipid peroxide (LOOH) detection in LDL with fluorescent probe DPPP; conditions: concentration range used in Example 2
Protocol: The absorption band around 234 nm of conjugated dienes formed during lipid oxidation was tracked by absorbance spectrophotometry. In addition, a measurement was performed by use of diphenyl-1-pyrenylphosphate (DPPP), which is a lipid peroxide (LOOH) detection fluorescent probe.

Compound	fluorescence intensities (λex: 470 nm, λem: 530 nm) (lipid radicals in LDL; 20 μg protein/ml LDL, 10 μM NBD-Pen, 0-3 μM CuSO4, FeSO4 or Hemin, 60 minutes at 37° C.)	sensitivity of fluorescence detection (lipid radicals in LDL; Hemin addition, compared with Cu2+ and Fe2+)	match of NBD-Pen fluorescence areas with oil-red stained plaques [1]	detection of lipid peroxides [2]
2,2,6-trimethyl-4-(4-nitrobenzo[1,2,5]oxadiazol-7-ylamino)-6-pentylpiperadine-1-oxyl [NBD-Pen]	increased in a concentration-dependent manner	high sensitivity of fluorescence detection	completely matched	
O=P(Oc1ccccc1)(Oc1ccccc1)Oc1ccc2ccc3cccc4ccc1c2c34 [DPPP, diphenyl-1-pyrenylphosphate]				neither method could detect lipid peroxides
